Test results taken from patent EP0561237A2, “Enantiomer, (-)-N-(2-ethoxyphenyl)-N'-(1,2,2-trimethylpropyl)-2-nitromethene-1,1-diamine, process for its preparation and its use” (BAYER AG, priority 1992, dated 1993).
pEC50, pIC50: −log10 of the molar value. Read-outs that look alike come from different tables or passages of the source. One block for each molecule: values may come before it.

Legend:
Neuronen = assay: Effect (hyperpolarising activity) on neurons; type: cell-based, Ratten
[1] = tested on: Neuronen vom Typ der Pyramidenzellen aus dem Hippocampus; assay: Neuroprotection on single neurons of the central nervous system; type: cell-based, Ratten; conditions: single neurons from rat CNS; inhibition of raised calcium during long-term depolarisation
ATP-abhängige K-Kanäle = assay: Glyburide sensitivity of the hyperpolarising effect; type: cell-based; conditions: with glyburide
[2] = tested on: Zellinie des glatten Muskels; assay: Activity in a smooth muscle cell line; type: cell-based
[3] = tested on: MIPP-N1E-115-Neuroblastomlinie; assay: Hyperpolarising activity in neuroblastoma cell line; type: cell-based; conditions: for hyperpolarisierende Wirkung: MIPP-N1E-115 neuroblastoma line
A10-Zellen = assay: Activity on vascular tissue (A10 cells); type: cell-based; conditions: read-out: IC₅₀
Gefäßmuskulatur = conditions: described in DE 32 32 462; cited from earlier work

pIC50 (Neuronen; Neuron, in neurons, read-out: IC₅₀-Wert): 11.30
pEC50 ([3]; Neuroblastoma cell, newly found hyperpolarising activity not blocked by glyburide, read-out: EC₅₀): > 11.00
pIC50 (A10-Zellen; listed as (-)-Enantiomer): 6.60
SMILES: CCOc1ccccc1NC(=C[N+](=O)[O-])NC(C)C(C)(C)C (single isomer, unassigned; (-)) [Beispiel 1, (-)-N-(2-Ethoxyphenyl)-N'-(1,2,2-trimethylpropyl)-2-nitroethen-1,1-diamin]
Neuroprotektion [1]: bemerkenswerte Neuroprotektion
hyperpolarisierende Wirkung, Blockierbarkeit durch Glyburide (ATP-abhängige K-Kanäle; listed as (-)-Enantiomer): durch Glyburide nicht blockiert
Wirksamkeit [2]: unwirksam
hyperpolarisierende Wirkung ([3]; listed as (-)-Enantiomer): wirksam

SMILES: CCOc1ccccc1NC(=C[N+](=O)[O-])NC(C)C(C)(C)C (racemic) [racemische Gemisch, N-(2-Ethoxyphenyl)-N'-(1,2,2-trimethylpropyl)-2-nitroethen-1,1-diamin]
Wirkung auf die Gefäßmuskulatur (Gefäßmuskulatur): eine Wirkung auf die Gefäßmuskulatur ausübt

pEC50 (Neuronen; Neuron, in neurons, read-out: EC₅₀-Wert): 6.30
pIC50 (A10-Zellen; listed as (+)-Enantiomer): 7.82
SMILES: CCOc1ccccc1NC(=C[N+](=O)[O-])NC(C)C(C)(C)C (single isomer, unassigned; (+)) [Beispiel 2, (+)-N-(2-Ethoxyphenyl)-N'-(1,2,2-trimethylpropyl)-2-nitroethen-1,1-diamin]
Blockierung der Wirkung des (-)-Enantiomers auf Neuronen (Neuronen; (+)-enantiomer 1 µM against effect of 5 pM (-)-enantiomer): blockiert
Konzentration, bei der wirksam, als Vielfaches der Konzentration des (-)-Enantiomers (Neuronen; multiple of the 5 pM concentration of the (-)-enantiomer in neurons): > 10 000 -fach
hyperpolarisierende Wirkung, Blockierbarkeit durch Glyburide (ATP-abhängige K-Kanäle; listed as (+)-Enantiomer): durch Glyburide inhibierbares Hyperpolarisierungsmittel
hyperpolarisierende Wirkung ([3]; listed as (+)-Enantiomer): nicht auf das (+)-Enantiomer anspricht
